The values below come from article PMC10986179, “PCC0208057 as a small molecule inhibitor of TRPC6 in the treatment of prostate cancer” (Frontiers in Pharmacology, 2024).

In this assay the target is T1, TRPC6 (transient receptor potential canonical 6) (Homo sapiens, UniProt Q9Y210).
T1 sequence (Q9Y210 1-931): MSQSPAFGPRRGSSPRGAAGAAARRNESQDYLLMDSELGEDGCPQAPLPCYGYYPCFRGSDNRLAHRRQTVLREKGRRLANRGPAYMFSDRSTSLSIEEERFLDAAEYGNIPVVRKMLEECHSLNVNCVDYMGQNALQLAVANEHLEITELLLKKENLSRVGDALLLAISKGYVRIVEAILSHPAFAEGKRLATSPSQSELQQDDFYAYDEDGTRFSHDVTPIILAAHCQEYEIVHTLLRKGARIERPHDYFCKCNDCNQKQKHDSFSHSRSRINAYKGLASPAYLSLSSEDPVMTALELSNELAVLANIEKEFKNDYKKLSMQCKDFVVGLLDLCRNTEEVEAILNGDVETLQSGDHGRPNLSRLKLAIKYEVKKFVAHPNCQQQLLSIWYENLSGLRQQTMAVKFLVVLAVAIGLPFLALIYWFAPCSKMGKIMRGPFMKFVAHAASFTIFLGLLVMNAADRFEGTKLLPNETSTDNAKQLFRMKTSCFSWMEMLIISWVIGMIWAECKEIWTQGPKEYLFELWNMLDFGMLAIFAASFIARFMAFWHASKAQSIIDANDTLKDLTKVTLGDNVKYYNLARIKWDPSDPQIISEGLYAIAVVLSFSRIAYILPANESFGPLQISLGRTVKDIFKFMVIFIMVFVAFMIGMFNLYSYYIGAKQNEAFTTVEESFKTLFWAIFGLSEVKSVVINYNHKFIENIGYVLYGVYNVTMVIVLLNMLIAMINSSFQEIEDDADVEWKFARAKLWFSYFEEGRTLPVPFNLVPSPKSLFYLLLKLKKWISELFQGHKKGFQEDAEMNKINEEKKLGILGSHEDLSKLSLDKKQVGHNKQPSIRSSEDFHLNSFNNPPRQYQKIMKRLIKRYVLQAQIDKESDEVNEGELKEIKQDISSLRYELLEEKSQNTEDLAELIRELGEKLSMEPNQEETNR
The assay is described as follows: Fluo-4 Ca2+ assay in TRPC6-HEK293 cells; also electrophysiology of GSK1702934A-evoked TRPC6 currents. Format: cell-based.

In turn, `COc1cccc2sc(N(CCN3CCCC3)C(=O)c3ccc4c(c3)OCO4)nc12` [PCC0208057] displayed an IC50 of 2440 nM.
